Assay results taken from patent publication US20170267986A1, “GENERATION OF MANNOSE-6-PHOSPHATE CONTAINING RECOMBINANT ALPHA-N-ACETYL GLUCOSAMINIDASE” (SHIRE HUMAN GENETIC THERAPIES, INC., priority 2014, published 2017).

Tests used:
Format in all cases: biochemical
rhNaglu [1] = target: T1, rhNaglu (Homo sapiens, UniProt P54802); assay: Naglu activity assay with various inhibitors (4MU-GlcNAc fluorescent substrate); details: added at 0.0625, 0.25, 1, 4 and 8 mM; 37° C., 1 hour, pH 4.5
T1 construct: The N-terminal 23 amino acids are cleaved as the precursor protein enters the endoplasmic reticulum, resulting in a mature form; made in house; host or cells: human fibrosarcoma HT1080 cell clone over-expressing rhNaglu
T1 sequence (P54802 24-743): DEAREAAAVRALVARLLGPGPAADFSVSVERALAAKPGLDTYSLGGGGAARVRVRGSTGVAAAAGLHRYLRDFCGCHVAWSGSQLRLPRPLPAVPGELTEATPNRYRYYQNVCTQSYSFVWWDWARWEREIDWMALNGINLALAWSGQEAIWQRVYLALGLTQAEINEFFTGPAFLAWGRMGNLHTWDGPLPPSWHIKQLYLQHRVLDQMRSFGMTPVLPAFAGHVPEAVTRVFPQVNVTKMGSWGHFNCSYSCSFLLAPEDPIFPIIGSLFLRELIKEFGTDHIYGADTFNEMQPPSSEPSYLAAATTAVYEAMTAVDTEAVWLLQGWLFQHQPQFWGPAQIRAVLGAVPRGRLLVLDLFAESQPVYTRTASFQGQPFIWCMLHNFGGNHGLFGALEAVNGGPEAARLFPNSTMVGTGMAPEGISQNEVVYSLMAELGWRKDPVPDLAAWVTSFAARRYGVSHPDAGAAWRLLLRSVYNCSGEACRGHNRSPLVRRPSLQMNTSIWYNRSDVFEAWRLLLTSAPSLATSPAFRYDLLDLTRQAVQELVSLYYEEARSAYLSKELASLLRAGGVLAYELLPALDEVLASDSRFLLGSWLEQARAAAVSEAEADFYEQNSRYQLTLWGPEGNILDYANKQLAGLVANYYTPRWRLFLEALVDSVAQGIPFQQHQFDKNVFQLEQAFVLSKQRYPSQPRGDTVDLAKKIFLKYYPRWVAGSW
Procedure: A 10 mM stock of Naglu activity substrate solution was prepared by dissolving 5 mg of substrate, i.e., 4-methylumbelliferyl-N-acetyl-α-D-glucosaminide, in 250 μl of 100% DMSO. Naglu activity assay reaction buffer (0.1 M sodium acetate, 0.5 mg/ml BSA, pH 4.5) was then added to bring the volume up to 1318 μl. This 10 mM substrate stock solution was then diluted 10 fold with reaction buffer to make the final 1 mM substrate solution.
Samples and controls were pre-diluted in reaction buffer. 10 μl of each pre-diluted sample/control were applied in duplicate wells on a black clear bottom 96 well plate. 75 μl of 1 mM substrate solution containing various concentrations of inhibitors were added to each well. The plates were sealed with plate sealer and wrapped with aluminum foil. The plates were then placed in a Boekel Jitterbug Microplate Incubator Shaker (Cole-Parmer, Vernon Hills, Ill.) and shaken (setting at #1) at 37° C. for 1 hour. 200 μl of Stop Buffer (0.2 M Glycine, pH 10.7) were then added to all of the wells and fluorescence emission (excitation/emission at 360 nm/460 nm, respectively) was measured using a SpectraMax® Plus M2 plate reader from Molecular Devices (Sunnyvale, Calif.).
To further confirm that rhNaglu could hydrolyze UDP-GlcNAc, we investigated whether UDP-GlcNAc inhibited the hydrolysis by rhNaglu of the fluorescent substrate 4MU-GlcNAc (4-methylumbelliferyl-N-acetyl-α-D-glucosaminide) in a Naglu activity assay. Briefly, UDP-GlcNAc, as well as GlcNAc, UDP-GalNAc and Glucosamine, were added to the Naglu activity assay at 0.0625, 0.25, 1, 4 and 8 mM concentrations. The fluorescence emitted from these samples was compared to control samples only including rhNaglu and 4MU-GlcNAc.

rhNaglu [2] = target: T1, rhNaglu; assay: Isothermal titration calorimetry (ITC) of UDP-GlcNAc hydrolysis by rhNaglu; details: preliminary ITC data
Description: The reduction of the UDP-GlcNAc substrate in the samples containing rhNaglu (FIG. 3A) and the formation of the reaction product GlcNAc in the samples containing rhNaglu (FIG. 3B) was apparent. The reductions of UDP-GlcNAc and the formation of GlcNAc were dependent on the initial concentration of UDP-GlcNAc in the reaction sample.

rhNaglu [3] = target: T1, rhNaglu; assay: Naglu substrate analysis: hydrolysis of UDP-sugars by rhNaglu, PAD-HPLC; details: 0.8 mM UDP-sugar, rhNaglu 2.6 to 2,000 μg/ml, Tris pH 7.15, 37° C., 1 hour
Procedure: Recombinant human Naglu was co-incubated with uridine diphosphate N-acetylglucosamine (UDP-GlcNAc) or uridine diphosphate N-acetyl galactosamine (UDP-GalNAc). UDP-GlcNAc, GlcNAc (N-acetylglucosamine) and UDP-GalNAc were detected using PAD-HPLC (Pulsed Amperometric Detection-High Pressure Liquid Chromatography) that was modified after Chavaroche et al. 2011.
Recombinant human Naglu was dialyzed into Tris buffer (40 mM Tris pH 7.15, 100 mM NaCl, 4 mM MgCl2, and 4 mM MnCl2) and concentrated with VivaSpin® sample concentrators having a 30 kDa cut-off (Viva Products, Inc., Littleton, Mass.). […]
Samples were then subjected to centrifugation at 10,000 rpm, and the resulting supernatants were loaded on PA10 columns and detected by PAD-HPLC (Pulsed Amperometric Detection-High Pressure Liquid Chromatography) (Dionex ICS-3000 Ion Chromatography System (Thermo Fisher Scientific, Inc., Sunnyvale, Calif.)). […] The peak areas for the eluted UDP-GlcNAc were measured, and the reductions of the area under the curve (AUC) in response to increased concentrations of rhNaglu were determined (FIG. 1A). A new peak at 10.7 minutes was detected on the chromatograms of samples treated with concentrations of rhNaglu of 23.4 μg/ml and above. […] The peak areas for the eluted GlcNAc were measured, and the increases of the AUC in response to increased concentrations of rhNaglu were determined (FIG. 1B). […]

## uridine diphosphate N-acetylglucosamine [UDP-GlcNAc]
rhNaglu [1]
  inhibition of rhNaglu activity toward 4MU-GlcNAc: Inhibition
rhNaglu [2]
  Km of hydrolysis by rhNaglu: milimolar range
rhNaglu [3]
  hydrolysis by rhNaglu: hydrolyses
